Experimental data from PubChem BioAssay (NCI).
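96-well plates; 48 h exposure; 5 concentrations. Endpoints by linear interpolation between flanking doses. Not reached: highest tested concentration assigned. Abbreviation: GI50, concentration required for 50% inhibition of growth. The concentration for full growth arrest is given as TGI.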

How the values were obtained:
Experiment in all cases: DTP human tumour cell line panel, 48 h
786-0 renal = system: 786-0 renal
A549 NSCLC = system: A549 NSCLC
ACHN renal = system: ACHN renal
BT-549 breast = system: BT-549 breast
CAKI-1 renal = system: CAKI-1 renal
CCRF-CEM leukemia = system: CCRF-CEM leukemia
COLO 205 colon = system: COLO 205 colon
DU-145 prostate = system: DU-145 prostate
EKVX NSCLC = system: EKVX NSCLC
HCC-2998 colon = system: HCC-2998 colon
HCT-116 colon = system: HCT-116 colon
HCT-15 colon = system: HCT-15 colon
HL-60(TB) leukemia = system: HL-60(TB) leukemia
HOP-62 NSCLC = system: HOP-62 NSCLC
HS 578T breast = system: HS 578T breast
HT29 colon = system: HT29 colon
IGROV1 ovarian = system: IGROV1 ovarian
K-562 leukemia = system: K-562 leukemia
KM12 colon = system: KM12 colon
LOX IMVI melanoma = system: LOX IMVI melanoma
M14 melanoma = system: M14 melanoma
MALME-3M melanoma = system: MALME-3M melanoma
MCF7 breast = system: MCF7 breast
MDA-MB-231 breast = system: MDA-MB-231 breast
MDA-MB-435 = system: MDA-MB-435
MOLT-4 leukemia = system: MOLT-4 leukemia
NCI-H226 lung = system: NCI-H226 lung
NCI-H23 lung = system: NCI-H23 lung
NCI-H460 lung = system: NCI-H460 lung
NCI-H522 lung = system: NCI-H522 lung
NCI/ADR-RES ovarian = system: NCI/ADR-RES ovarian
OVCAR-3 ovarian = system: OVCAR-3 ovarian
OVCAR-4 ovarian = system: OVCAR-4 ovarian
OVCAR-8 ovarian = system: OVCAR-8 ovarian
RPMI-8226 leukemia = system: RPMI-8226 leukemia
SF-268 CNS = system: SF-268 CNS
SF-295 CNS = system: SF-295 CNS
SF-539 CNS = system: SF-539 CNS
SK-MEL-2 melanoma = system: SK-MEL-2 melanoma
SK-MEL-28 melanoma = system: SK-MEL-28 melanoma
SK-MEL-5 melanoma = system: SK-MEL-5 melanoma
SN12C renal = system: SN12C renal
SNB-19 CNS = system: SNB-19 CNS
SR leukemia = system: SR leukemia
SW-620 colon = system: SW-620 colon
T-47D breast = system: T-47D breast
TK-10 renal = system: TK-10 renal
UACC-257 melanoma = system: UACC-257 melanoma
UACC-62 melanoma = system: UACC-62 melanoma
UO-31 renal = system: UO-31 renal
HOP-92 NSCLC = system: HOP-92 NSCLC
OVCAR-5 ovarian = system: OVCAR-5 ovarian
PC-3 prostate = system: PC-3 prostate
RXF 393 renal = system: RXF 393 renal
SK-OV-3 ovarian = system: SK-OV-3 ovarian
U251 CNS = system: U251 CNS

SMILES: Cc1ccc(S(=O)(=O)N2CCN(S(=O)(=O)c3ccc(C)cc3)Cc3ccccc3C2)cc1
- TGI (786-0 renal): > 100 µM
- TGI (A549 NSCLC): > 100 µM
- TGI (ACHN renal): > 100 µM
- TGI (BT-549 breast): > 100 µM
- TGI (CAKI-1 renal): > 100 µM
- TGI (CCRF-CEM leukemia): > 100 µM
- TGI (COLO 205 colon): > 100 µM
- TGI (DU-145 prostate): > 100 µM
- TGI (EKVX NSCLC): > 100 µM
- TGI (HCC-2998 colon): > 100 µM
- TGI (HCT-116 colon): > 100 µM
- TGI (HCT-15 colon): > 100 µM
- TGI (HL-60(TB) leukemia): > 100 µM
- TGI (HOP-62 NSCLC): 51.5 µM
- TGI (HS 578T breast): 96.5 µM
- TGI (HT29 colon): > 100 µM
- TGI (IGROV1 ovarian): > 100 µM
- TGI (K-562 leukemia): > 100 µM
- TGI (KM12 colon): > 100 µM
- TGI (LOX IMVI melanoma): > 100 µM
- TGI (M14 melanoma): > 100 µM
- TGI (MALME-3M melanoma): > 100 µM
- TGI (MCF7 breast): > 100 µM
- TGI (MDA-MB-231 breast): > 100 µM
- TGI (MDA-MB-435): > 100 µM
- TGI (MOLT-4 leukemia): > 100 µM
- TGI (NCI-H226 lung): > 100 µM
- TGI (NCI-H23 lung): > 100 µM
- TGI (NCI-H460 lung): > 100 µM
- TGI (NCI-H522 lung): 95 µM
- TGI (NCI/ADR-RES ovarian): > 100 µM
- TGI (OVCAR-3 ovarian): > 100 µM
- TGI (OVCAR-4 ovarian): 90.8 µM
- TGI (OVCAR-8 ovarian): > 100 µM
- TGI (RPMI-8226 leukemia): > 100 µM
- TGI (SF-268 CNS): > 100 µM
- TGI (SF-295 CNS): > 100 µM
- TGI (SF-539 CNS): > 100 µM
- TGI (SK-MEL-2 melanoma): > 100 µM
- TGI (SK-MEL-28 melanoma): > 100 µM
- TGI (SK-MEL-5 melanoma): > 100 µM
- TGI (SN12C renal): > 100 µM
- TGI (SNB-19 CNS): > 100 µM
- TGI (SR leukemia): > 100 µM
- TGI (SW-620 colon): > 100 µM
- TGI (T-47D breast): > 100 µM
- TGI (TK-10 renal): > 100 µM
- TGI (UACC-257 melanoma): > 100 µM
- TGI (UACC-62 melanoma): 36.7 µM
- TGI (UO-31 renal): > 100 µM

SMILES: Cc1cc2c(cc1Cl)SC1=CC(=O)N(c3ccccc3)C1=NS2(=O)=O
- GI50 (786-0 renal): 27.5 µM
- TGI (786-0 renal): 71.6 µM
- GI50 (A549 NSCLC): > 100 µM
- TGI (A549 NSCLC): > 100 µM
- GI50 (ACHN renal): 26.6 µM
- TGI (ACHN renal): > 100 µM
- GI50 (BT-549 breast): 30 µM
- TGI (BT-549 breast): 65.3 µM
- GI50 (CAKI-1 renal): > 100 µM
- TGI (CAKI-1 renal): > 100 µM
- GI50 (CCRF-CEM leukemia): 24.8 µM
- TGI (CCRF-CEM leukemia): 95.5 µM
- GI50 (COLO 205 colon): 26.4 µM
- TGI (COLO 205 colon): 67 µM
- GI50 (DU-145 prostate): 59.4 µM
- TGI (DU-145 prostate): > 100 µM
- GI50 (EKVX NSCLC): > 100 µM
- TGI (EKVX NSCLC): > 100 µM
- GI50 (HCT-116 colon): 30.9 µM
- TGI (HCT-116 colon): > 100 µM
- GI50 (HCT-15 colon): > 100 µM
- TGI (HCT-15 colon): > 100 µM
- GI50 (HL-60(TB) leukemia): 23.8 µM
- TGI (HL-60(TB) leukemia): 63.8 µM
- GI50 (HOP-62 NSCLC): 46 µM
- TGI (HOP-62 NSCLC): > 100 µM
- GI50 (HOP-92 NSCLC): 34.3 µM
- TGI (HOP-92 NSCLC): > 100 µM
- GI50 (HT29 colon): 21.5 µM
- TGI (HT29 colon): 67.8 µM
- GI50 (IGROV1 ovarian): 53.9 µM
- TGI (IGROV1 ovarian): > 100 µM
- GI50 (KM12 colon): 26.1 µM
- TGI (KM12 colon): 67.3 µM
- GI50 (LOX IMVI melanoma): 26.2 µM
- TGI (LOX IMVI melanoma): 61.1 µM
- GI50 (M14 melanoma): 21 µM
- TGI (M14 melanoma): 42.8 µM
- GI50 (MALME-3M melanoma): 44.6 µM
- TGI (MALME-3M melanoma): > 100 µM
- GI50 (MCF7 breast): 39.4 µM
- TGI (MCF7 breast): > 100 µM
- GI50 (MDA-MB-231 breast): 43.7 µM
- TGI (MDA-MB-231 breast): > 100 µM
- GI50 (MDA-MB-435): > 100 µM
- TGI (MDA-MB-435): > 100 µM
- GI50 (MOLT-4 leukemia): 31.7 µM
- TGI (MOLT-4 leukemia): > 100 µM
- GI50 (NCI-H226 lung): 66.7 µM
- TGI (NCI-H226 lung): > 100 µM
- GI50 (NCI-H23 lung): > 100 µM
- TGI (NCI-H23 lung): > 100 µM
- GI50 (NCI-H460 lung): 59.5 µM
- TGI (NCI-H460 lung): > 100 µM
- GI50 (NCI-H522 lung): 67.1 µM
- TGI (NCI-H522 lung): > 100 µM
- GI50 (NCI/ADR-RES ovarian): 37.8 µM
- TGI (NCI/ADR-RES ovarian): > 100 µM
- GI50 (OVCAR-3 ovarian): > 100 µM
- TGI (OVCAR-3 ovarian): > 100 µM
- GI50 (OVCAR-4 ovarian): 65.3 µM
- TGI (OVCAR-4 ovarian): > 100 µM
- GI50 (OVCAR-5 ovarian): > 100 µM
- TGI (OVCAR-5 ovarian): > 100 µM
- GI50 (OVCAR-8 ovarian): 57.1 µM
- TGI (OVCAR-8 ovarian): > 100 µM
- GI50 (PC-3 prostate): 37.4 µM
- TGI (PC-3 prostate): > 100 µM
- GI50 (RPMI-8226 leukemia): 14.4 µM
- TGI (RPMI-8226 leukemia): 36.5 µM
- GI50 (RXF 393 renal): > 100 µM
- TGI (RXF 393 renal): > 100 µM
- GI50 (SF-268 CNS): 92.3 µM
- TGI (SF-268 CNS): > 100 µM
- GI50 (SF-295 CNS): > 100 µM
- TGI (SF-295 CNS): > 100 µM
- GI50 (SK-MEL-2 melanoma): 51.4 µM
- TGI (SK-MEL-2 melanoma): > 100 µM
- GI50 (SK-MEL-28 melanoma): 16.9 µM
- TGI (SK-MEL-28 melanoma): 40.9 µM
- TGI (SK-MEL-5 melanoma): 10.8 µM
- GI50 (SK-OV-3 ovarian): > 100 µM
- TGI (SK-OV-3 ovarian): > 100 µM
- GI50 (SN12C renal): 32 µM
- TGI (SN12C renal): > 100 µM
- GI50 (SNB-19 CNS): 54.5 µM
- TGI (SNB-19 CNS): > 100 µM
- GI50 (SW-620 colon): 33.1 µM
- TGI (SW-620 colon): > 100 µM
- GI50 (T-47D breast): 13 µM
- TGI (T-47D breast): 65.1 µM
- GI50 (TK-10 renal): 21.6 µM
- TGI (TK-10 renal): 60.3 µM
- GI50 (U251 CNS): 57.5 µM
- TGI (U251 CNS): > 100 µM
- GI50 (UACC-257 melanoma): 51.5 µM
- TGI (UACC-257 melanoma): > 100 µM
- GI50 (UACC-62 melanoma): 33 µM
- TGI (UACC-62 melanoma): > 100 µM
- GI50 (UO-31 renal): 54 µM
- TGI (UO-31 renal): > 100 µM
